Laboratory results as given in the SangsterLogP compilation.

Experiment: not given

SMILES	logP
COP(=O)(OC)O/C(=C\Cl)c1cc(Cl)c(Cl)cc1Cl	3.87
CCSC(=O)N1CCCCCC1	2.49
CCSC(=O)N(CC)C1CCCCC1	3.25
CCSC(=O)N(CC(C)C)CC(C)C	3.45
CCc1cccc(CC)c1N(COC)C(=O)CCl	2.95
Clc1ccc(C(c2ccccc2Cl)C(Cl)(Cl)Cl)cc1 (centres undefined)	5.53
Clc1ccc(C(c2ccccc2Cl)C(Cl)Cl)cc1 (centres undefined)	5.34
CCCN(CCC)C(=O)SCC	2.77
ClC(Cl)=C(c1ccc(Cl)cc1)c1ccccc1Cl	5.45
CCOP(=S)(OCC)Oc1ccc2c(C)c(Cl)c(=O)oc2c1	4.01
CCCSC(=O)N(CCC)CCC	3.19
CCCCN(CC)C(=O)SCCC	3.27
CCOP(=S)(OCC)SCSC(C)(C)C	3.98

Experiment: method code RP-HPLC, from DOI: 10.1016/s0045-6535(96)00355-4

SMILES	logP
CCNc1nc(N)nc(Cl)n1	1.07
OC(c1ccc(Cl)cc1)(c1ccc(Cl)cc1)C(Cl)(Cl)Cl	4.93
CCNc1nc(NC(C)(C)C)nc(OC)n1	2.95
CC(C)N(C(=O)CCl)c1ccccc1	2.36
CCC(CC)Nc1c([N+](=O)[O-])cc(C)c(C)c1[N+](=O)[O-]	4.78
CCNc1nc(NC(C)C)nc(OC)n1	2.29
